Measurements taken from patent US12403135B2, “4H-pyrrolo[3,2-c]pyridin-4-one derivatives” (Bayer Aktiengesellschaft, priority 2019, dated 2025).
pIC50: −log10 of the molar value. Read-outs that look alike come from different tables or passages of the source.

Assays:
Format in all cases: cell-based
[1] = test system: Ba/F3-EGFR-delLREA cells (EGFR del19/delLREA (746-750), E746_A750del); assay: BA/F3 EGFR del19/delLREA (746-750) (E746_A750del) cell survival assay, Cell Titer-Glo
Method: (§1) Plates were incubated at 37° C. for 48 h. Retrovirus was harvested by filtering the media supernatant through a 0.45 μm filter.
(§2) Ba/F3 cells purchased from DSMZ were grown in RPMI+10% FBS+10 ng/mL IL-3 and infected with filtered retroviral supernatant at a 1:2 dilution. Polybrene was added to a concentration of 8 μg/mL, plates were spun for 90 min, and incubated overnight at 37° C. 2 μg/mL puromycin was added to the infected cells 24 h after infection and cells were continually grown in the presence of puromycin and 10 ng/mL IL-3. Following stably expressing Ba/F3 cell lines were generated: Ba/F3-EGFR-L858R, Ba/F3-EGFR-delLREA, (Ba/F3-vector-control).
(§3) For cell survival assays, Ba/F3 cells were grown to a density of 1-2 million cells per mL, spun down and resuspended in media without IL-3, and replated at a concentration 200,000-500,000 cells per mL. The cells ectopically expressing pBABEpuro empty vector were plated with 10 ng/mL IL-3.
(§4) 2 days later, cells were plated in 50 μL in a 384 well plate at a concentration of 4000 cells per well for cells assayed in the absence of IL-3 and 2000 cells per well for cells (pBABE puro empty vector) assayed in the presence of IL-3. 100 nL of compound was added to each well using a 100 nL pin head, and plates were incubated at 37° C. for 48 h.
(§5) Cell viability was measured by adding 20 μL of Cell Titer-Glo Luminescent Cell Viability Reagent diluted 1:3 in PBS. Plates were sealed with Perkin Elmer Top-Seal, inverted several times to mix, and immediately centrifuged at 1000 rpm for 2 min. Plates were incubated in low light conditions for 8-10 min and luminescence was measured.

[2] = target: Ba/F3-EGFR-L858R cells (Homo sapiens, UniProt P00533, L858R, cells depend on it); assay: BA/F3 EGFR L858R cell survival assay, Cell Titer-Glo; details: read-out: BA/F3 (EGFR L858R) IC50
Sequence of Ba/F3-EGFR-L858R cells (P00533 whole entry L858R): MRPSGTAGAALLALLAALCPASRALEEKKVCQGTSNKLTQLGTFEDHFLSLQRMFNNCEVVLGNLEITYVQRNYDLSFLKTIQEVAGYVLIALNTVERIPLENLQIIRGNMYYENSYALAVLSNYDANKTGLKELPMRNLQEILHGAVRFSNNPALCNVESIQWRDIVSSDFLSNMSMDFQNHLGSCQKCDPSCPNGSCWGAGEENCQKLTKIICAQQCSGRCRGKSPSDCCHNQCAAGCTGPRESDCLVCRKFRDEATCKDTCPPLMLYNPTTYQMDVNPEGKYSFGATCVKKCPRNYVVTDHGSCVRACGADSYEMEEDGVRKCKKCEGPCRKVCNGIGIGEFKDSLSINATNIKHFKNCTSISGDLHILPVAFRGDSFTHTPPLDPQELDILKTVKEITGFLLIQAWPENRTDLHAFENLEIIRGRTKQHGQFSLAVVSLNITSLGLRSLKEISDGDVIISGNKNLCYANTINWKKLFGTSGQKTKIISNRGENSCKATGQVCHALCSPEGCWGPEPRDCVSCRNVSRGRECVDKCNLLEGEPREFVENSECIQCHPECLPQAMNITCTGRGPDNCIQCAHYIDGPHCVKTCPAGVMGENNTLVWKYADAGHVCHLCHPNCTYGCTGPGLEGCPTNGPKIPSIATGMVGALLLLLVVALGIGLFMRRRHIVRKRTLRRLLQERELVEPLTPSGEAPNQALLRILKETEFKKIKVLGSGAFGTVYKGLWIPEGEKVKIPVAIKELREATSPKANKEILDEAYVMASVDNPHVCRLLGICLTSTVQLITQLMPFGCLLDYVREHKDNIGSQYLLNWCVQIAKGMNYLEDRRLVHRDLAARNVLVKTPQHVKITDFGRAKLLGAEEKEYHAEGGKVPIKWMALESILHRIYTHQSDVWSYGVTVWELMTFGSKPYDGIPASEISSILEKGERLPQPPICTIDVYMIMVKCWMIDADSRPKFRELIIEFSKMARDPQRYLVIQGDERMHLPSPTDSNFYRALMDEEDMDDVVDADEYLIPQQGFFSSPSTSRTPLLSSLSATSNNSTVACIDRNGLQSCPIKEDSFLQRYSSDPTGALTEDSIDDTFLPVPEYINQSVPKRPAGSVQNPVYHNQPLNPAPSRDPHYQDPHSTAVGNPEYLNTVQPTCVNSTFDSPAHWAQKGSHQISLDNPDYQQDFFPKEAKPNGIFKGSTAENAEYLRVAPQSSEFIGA
Method: as §1, §2, §3, §4, §5

[3] = target: Ba/F3-EGFR-D770_N771 insNPG cells (Homo sapiens, UniProt P00533, INS772GNP, cells depend on it); assay: BA/F3 (insNPG) proliferation, EGFR Exon20 insertion mutation; details: Table 9; EGFR Exon20 insertion mutations; read-out: BA/F3 (insNPG) IC50
Sequence of Ba/F3-EGFR-D770_N771 insNPG cells (P00533 with tags, fused parts or gaps INS772GNP): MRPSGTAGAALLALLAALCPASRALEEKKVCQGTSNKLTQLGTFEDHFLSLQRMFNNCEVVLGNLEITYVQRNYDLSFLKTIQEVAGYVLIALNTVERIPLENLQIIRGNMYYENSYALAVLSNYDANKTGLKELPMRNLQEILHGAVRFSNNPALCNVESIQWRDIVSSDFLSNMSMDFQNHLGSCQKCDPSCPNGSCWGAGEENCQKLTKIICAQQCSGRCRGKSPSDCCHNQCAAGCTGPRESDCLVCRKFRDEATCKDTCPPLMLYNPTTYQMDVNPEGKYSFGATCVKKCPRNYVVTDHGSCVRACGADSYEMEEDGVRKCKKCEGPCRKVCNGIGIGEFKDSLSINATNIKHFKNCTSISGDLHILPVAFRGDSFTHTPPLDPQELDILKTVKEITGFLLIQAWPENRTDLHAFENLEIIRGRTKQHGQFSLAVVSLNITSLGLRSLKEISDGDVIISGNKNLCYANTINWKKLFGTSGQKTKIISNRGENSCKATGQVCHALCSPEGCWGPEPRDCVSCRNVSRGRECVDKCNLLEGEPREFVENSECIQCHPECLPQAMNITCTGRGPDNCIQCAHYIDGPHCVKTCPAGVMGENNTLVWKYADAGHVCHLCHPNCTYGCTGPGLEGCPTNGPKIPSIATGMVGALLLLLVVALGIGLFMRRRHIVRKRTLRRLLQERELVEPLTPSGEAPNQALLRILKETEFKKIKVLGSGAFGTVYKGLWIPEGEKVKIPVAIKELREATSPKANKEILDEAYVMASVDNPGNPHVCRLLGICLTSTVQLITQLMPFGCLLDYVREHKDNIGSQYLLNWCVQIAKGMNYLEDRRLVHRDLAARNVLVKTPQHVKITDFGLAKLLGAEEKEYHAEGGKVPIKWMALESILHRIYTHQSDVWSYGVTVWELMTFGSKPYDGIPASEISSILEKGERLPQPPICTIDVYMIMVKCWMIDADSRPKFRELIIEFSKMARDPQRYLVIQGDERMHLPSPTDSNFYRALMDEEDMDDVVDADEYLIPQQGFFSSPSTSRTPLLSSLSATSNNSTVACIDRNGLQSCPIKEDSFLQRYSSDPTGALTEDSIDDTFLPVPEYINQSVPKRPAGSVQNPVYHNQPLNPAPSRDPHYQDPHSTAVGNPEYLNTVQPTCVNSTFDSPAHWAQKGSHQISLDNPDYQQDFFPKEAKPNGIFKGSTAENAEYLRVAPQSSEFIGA
Method: as §1
as §2, with “Ba/F3-EGFR-V769_D770 insASV, Ba/F3-EGFR-D770_N771 insNPG, Ba/F3-EGFR-N771_P772 insH, Ba/F3-EGFR-H773_V774 insNPH, Ba/F3-EGFR-D770_N771 insSVD C797S, Ba/F3-EGFR-E746_A750del C797S, Ba/F3-EGFR-L858R C797S, Ba/F3-EGFR L861Q and Ba/F3-ERBB2-A775_G776insYVMA” for “Ba/F3-EGFR-L858R, Ba/F3-EGFR-delLREA,”

[4] = target: Ba/F3-EGFR-V769_D770 insASV cells (Homo sapiens, UniProt P00533, DUP767-769, cells depend on it); assay: BA/F3 (ASV) proliferation, EGFR Exon20 insertion mutation; details: Table 9; EGFR Exon20 insertion mutations; read-out: BA/F3 (ASV) IC50
Sequence of Ba/F3-EGFR-V769_D770 insASV cells (P00533 with tags, fused parts or gaps DUP767-769): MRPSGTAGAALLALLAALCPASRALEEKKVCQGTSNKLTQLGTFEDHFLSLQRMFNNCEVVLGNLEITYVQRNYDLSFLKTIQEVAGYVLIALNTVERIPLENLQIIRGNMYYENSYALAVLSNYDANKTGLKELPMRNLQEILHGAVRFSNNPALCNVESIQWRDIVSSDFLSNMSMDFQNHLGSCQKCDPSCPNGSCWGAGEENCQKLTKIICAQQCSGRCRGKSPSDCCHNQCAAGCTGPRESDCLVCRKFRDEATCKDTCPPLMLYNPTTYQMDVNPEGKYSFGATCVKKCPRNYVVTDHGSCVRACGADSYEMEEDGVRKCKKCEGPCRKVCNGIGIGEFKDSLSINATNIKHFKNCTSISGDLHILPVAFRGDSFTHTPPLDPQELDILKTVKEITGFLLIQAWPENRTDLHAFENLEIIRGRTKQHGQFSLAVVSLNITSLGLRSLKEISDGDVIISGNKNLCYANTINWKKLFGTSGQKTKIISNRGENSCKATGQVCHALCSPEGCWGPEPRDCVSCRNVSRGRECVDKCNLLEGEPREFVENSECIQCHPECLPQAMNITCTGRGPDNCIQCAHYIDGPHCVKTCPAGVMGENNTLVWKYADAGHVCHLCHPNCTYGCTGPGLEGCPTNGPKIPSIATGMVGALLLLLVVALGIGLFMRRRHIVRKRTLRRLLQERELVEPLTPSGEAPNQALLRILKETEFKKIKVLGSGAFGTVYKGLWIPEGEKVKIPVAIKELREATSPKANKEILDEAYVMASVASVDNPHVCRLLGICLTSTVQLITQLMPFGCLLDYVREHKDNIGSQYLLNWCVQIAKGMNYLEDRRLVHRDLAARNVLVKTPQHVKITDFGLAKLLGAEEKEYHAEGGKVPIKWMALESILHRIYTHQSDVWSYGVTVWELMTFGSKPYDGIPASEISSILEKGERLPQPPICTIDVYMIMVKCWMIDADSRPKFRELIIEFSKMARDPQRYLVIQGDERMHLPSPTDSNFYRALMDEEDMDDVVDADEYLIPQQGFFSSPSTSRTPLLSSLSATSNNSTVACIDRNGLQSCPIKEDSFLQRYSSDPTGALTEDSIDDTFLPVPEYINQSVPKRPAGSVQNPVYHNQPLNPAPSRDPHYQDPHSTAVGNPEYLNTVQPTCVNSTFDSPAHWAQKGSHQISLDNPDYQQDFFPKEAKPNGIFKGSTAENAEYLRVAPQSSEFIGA
Method: as §1
as §2, with “Ba/F3-EGFR-V769_D770 insASV, Ba/F3-EGFR-D770_N771 insNPG, Ba/F3-EGFR-N771_P772 insH, Ba/F3-EGFR-H773_V774 insNPH, Ba/F3-EGFR-D770_N771 insSVD C797S, Ba/F3-EGFR-E746_A750del C797S, Ba/F3-EGFR-L858R C797S, Ba/F3-EGFR L861Q and Ba/F3-ERBB2-A775_G776insYVMA” for “Ba/F3-EGFR-L858R, Ba/F3-EGFR-delLREA,”

[5] = test system: Ba/F3-EGFR L861Q cells; assay: BA/F3 (EGFR L861Q) proliferation, uncommon EGFR mutation; details: Table 10, classical activating and uncommon EGFR mutations
Method: as §1
as §2, with “Ba/F3-EGFR-V769_D770 insASV, Ba/F3-EGFR-D770_N771 insNPG, Ba/F3-EGFR-N771_P772 insH, Ba/F3-EGFR-H773_V774 insNPH, Ba/F3-EGFR-D770_N771 insSVD C797S, Ba/F3-EGFR-E746_A750del C797S, Ba/F3-EGFR-L858R C797S, Ba/F3-EGFR L861Q and Ba/F3-ERBB2-A775_G776insYVMA” for “Ba/F3-EGFR-L858R, Ba/F3-EGFR-delLREA,”

[6] = test system: Ba/F3-EGFR-D770_N771 insSVD C797S cells; assay: BA/F3 (EGFR D770_N771 insSVD C797S) proliferation, acquired resistance; details: Ba/F3 EGFR-D770-N771ins_SVD; Table 11; acquired resistance space
Method: as §1
as §2, with “Ba/F3-EGFR-V769_D770 insASV, Ba/F3-EGFR-D770_N771 insNPG, Ba/F3-EGFR-N771_P772 insH, Ba/F3-EGFR-H773_V774 insNPH, Ba/F3-EGFR-D770_N771 insSVD C797S, Ba/F3-EGFR-E746_A750del C797S, Ba/F3-EGFR-L858R C797S, Ba/F3-EGFR L861Q and Ba/F3-ERBB2-A775_G776insYVMA” for “Ba/F3-EGFR-L858R, Ba/F3-EGFR-delLREA,”

[7] = test system: Ba/F3-EGFR-E746_A750del C797S cells; assay: BA/F3 (EGFR E746_A750del C797S) proliferation, acquired resistance; details: Table 11, acquired resistance space
Method: as §1
as §2, with “Ba/F3-EGFR-V769_D770 insASV, Ba/F3-EGFR-D770_N771 insNPG, Ba/F3-EGFR-N771_P772 insH, Ba/F3-EGFR-H773_V774 insNPH, Ba/F3-EGFR-D770_N771 insSVD C797S, Ba/F3-EGFR-E746_A750del C797S, Ba/F3-EGFR-L858R C797S, Ba/F3-EGFR L861Q and Ba/F3-ERBB2-A775_G776insYVMA” for “Ba/F3-EGFR-L858R, Ba/F3-EGFR-delLREA,”

[8] = test system: Ba/F3-EGFR-L858R C797S cells; assay: BA/F3 (EGFR L858R C797S) proliferation, acquired resistance; details: Table 11, acquired resistance space
Method: as §1
as §2, with “Ba/F3-EGFR-V769_D770 insASV, Ba/F3-EGFR-D770_N771 insNPG, Ba/F3-EGFR-N771_P772 insH, Ba/F3-EGFR-H773_V774 insNPH, Ba/F3-EGFR-D770_N771 insSVD C797S, Ba/F3-EGFR-E746_A750del C797S, Ba/F3-EGFR-L858R C797S, Ba/F3-EGFR L861Q and Ba/F3-ERBB2-A775_G776insYVMA” for “Ba/F3-EGFR-L858R, Ba/F3-EGFR-delLREA,”

[9] = target: Ba/F3-ERBB2-A775_G776insYVMA cells (Homo sapiens, UniProt P04626, DUP772-775, cells depend on it); assay: BA/F3 (ERBB2 A775_G776 insYVMA) proliferation; details: Table 12; read-out: BA/F3 (ERBB2 A775_G776 insYVMA) IC50
Sequence of Ba/F3-ERBB2-A775_G776insYVMA cells (P04626 with tags, fused parts or gaps DUP772-775): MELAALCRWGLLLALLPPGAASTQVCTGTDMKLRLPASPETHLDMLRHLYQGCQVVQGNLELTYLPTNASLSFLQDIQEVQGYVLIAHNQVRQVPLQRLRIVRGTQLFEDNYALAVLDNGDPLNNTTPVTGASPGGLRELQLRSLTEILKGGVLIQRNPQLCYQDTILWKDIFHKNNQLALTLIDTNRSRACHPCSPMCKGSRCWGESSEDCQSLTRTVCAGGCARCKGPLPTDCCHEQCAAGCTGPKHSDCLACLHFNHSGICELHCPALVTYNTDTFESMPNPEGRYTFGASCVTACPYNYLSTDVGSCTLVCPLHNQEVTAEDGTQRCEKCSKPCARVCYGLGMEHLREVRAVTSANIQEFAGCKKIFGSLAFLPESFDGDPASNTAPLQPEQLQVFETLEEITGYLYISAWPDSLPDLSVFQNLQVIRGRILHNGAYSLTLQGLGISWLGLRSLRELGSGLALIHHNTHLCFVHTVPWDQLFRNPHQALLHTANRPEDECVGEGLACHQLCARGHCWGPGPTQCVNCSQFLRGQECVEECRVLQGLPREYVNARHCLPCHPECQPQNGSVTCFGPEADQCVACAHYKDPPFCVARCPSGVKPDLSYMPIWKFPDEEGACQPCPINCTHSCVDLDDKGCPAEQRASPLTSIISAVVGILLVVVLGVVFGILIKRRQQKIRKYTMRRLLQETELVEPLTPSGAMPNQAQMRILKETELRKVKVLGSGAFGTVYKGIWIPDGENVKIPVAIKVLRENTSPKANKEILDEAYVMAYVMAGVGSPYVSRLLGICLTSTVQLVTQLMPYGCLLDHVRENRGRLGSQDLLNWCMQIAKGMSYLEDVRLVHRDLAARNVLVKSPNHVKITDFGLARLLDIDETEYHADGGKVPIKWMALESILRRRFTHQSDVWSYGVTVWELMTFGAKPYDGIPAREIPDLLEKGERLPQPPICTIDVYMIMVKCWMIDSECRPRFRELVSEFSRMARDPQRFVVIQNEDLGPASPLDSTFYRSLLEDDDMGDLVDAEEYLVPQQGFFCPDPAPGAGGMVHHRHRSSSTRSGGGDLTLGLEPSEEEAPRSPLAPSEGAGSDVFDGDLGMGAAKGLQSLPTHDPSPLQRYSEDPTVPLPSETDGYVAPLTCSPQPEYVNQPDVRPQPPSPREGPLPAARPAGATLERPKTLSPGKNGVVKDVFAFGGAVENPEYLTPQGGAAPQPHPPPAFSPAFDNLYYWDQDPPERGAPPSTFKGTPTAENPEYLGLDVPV
Method: as §1
as §2, with “Ba/F3-EGFR-V769_D770 insASV, Ba/F3-EGFR-D770_N771 insNPG, Ba/F3-EGFR-N771_P772 insH, Ba/F3-EGFR-H773_V774 insNPH, Ba/F3-EGFR-D770_N771 insSVD C797S, Ba/F3-EGFR-E746_A750del C797S, Ba/F3-EGFR-L858R C797S, Ba/F3-EGFR L861Q and Ba/F3-ERBB2-A775_G776insYVMA” for “Ba/F3-EGFR-L858R, Ba/F3-EGFR-delLREA,”

[10] = test system: PC9 cells (EGFRex19del); assay: PC9 cell proliferation, Cell Titer Glo, 72 h; details: Table 12, several values per example
Method: (§6) PC9 cells were purchased from ATCC. 400 PC9 cells per well were seeded in growth medium (DMEM, 10% FCS) in a 384-well plate (CORNING #3571). Seed reference plate for time zero determination on the same day. All plates were incubated overnight at 37° C. After 24 hours, test compound were added in 7-step dilution using HP Compound printer and incubated at 37° C. for 72 h. After 3 days, 30 μL/well CTG solution (Promega Cell Titer Glo solution; catalog #G755B and G756B) were added to each well, incubated for 30 minutes and the plate were read on PheraStar. Proliferation is calculated after subtracting time zero luminescence values from day 4 values and comparing to untreated wells. The IC50 values were determined using the four parameter fit.

[11] = test system: HCC-827 cells (EGFRex19del); assay: HCC-827 cell proliferation, Cell Titer Glo, 72 h; details: Homo sapiens, HCC827, 72 h, Table 12, several values per example
Method: as §6, with “HCC-827 cells” for “PC9 cells”, “[…]” for “400 PC9”, “medium (RPMI1640,” for “medium (DMEM,”, “wells.” for “wells. The IC50 values were determined using the four parameter fit.”
The IC50 values were determined using the four parameter fit.

[12] = target: Ba/F3-EGFR-WT cells (BA/F3 wild type EGFR) (Homo sapiens, UniProt P00533); assay: BA/F3 (wild type) proliferation assay, Cell Titer-Glo; details: Table 7; plated with 10 ng/mL EGF, without IL-3, 48 h; read-out: BA/F3 (wild type) IC50
Method: as §1
as §2, with “Ba/F3-EGFR-WT.” for “Ba/F3-EGFR-L858R, Ba/F3-EGFR-delLREA, (Ba/F3-vector-control).”
For cell survival assays, Ba/F3 cells were grown to a density of 1-2 million cells per mL, spun down and resuspended in media without IL-3, and replated at a concentration 200,000-500,000 cells per mL. The cells ectopically expressing WT EGFR were plated with 10 ng/mL Millipore Culture grade EGF.
24 hours later, cells were plated in 30 μL in a 384 well plate at a concentration of 3200 cells per well for cells assayed in the absence of IL-3. 100 nL of compound was added to each well using a 100 nL pin head, and plates were incubated at 37° C. for 48 h.
as §5, with “30” for “20”, “Reagent.” for “Reagent diluted 1:3 in PBS.”

[13] = Table 10, classical activating and uncommon EGFR mutations, read-out: BA/F3 (EGFR E746_A750del) IC50
[14] = Table 10, classical activating and uncommon EGFR mutations
[15] = Table 8, without IL-3, 48 h, read-out: BA/F3 (EGFR del19/delREA (746-750) IC50)

Row | GI50 [3] [nM] | GI50 [4] [nM] | pIC50 [5] | pIC50 [6] | pIC50 [7] | pIC50 [8] | GI50 [9] [nM] | pIC50 ([10]; Homo sapiens, PC-9, 72 h) | pIC50 [11] | pIC50 [10] | GI50 [12] [nM] | SMILES | pIC50 [1, 13] | GI50 [2, 14] [nM] | pIC50 [1, 15] | GI50 ([2]; Table 8, without IL-3, 48 h) [nM]
1 | 10 | 15.1 | 7.67 | 7.76 | 9.27 | 8.97 | 21.7 | 8.00 | > 8.52 |  |  | COc1c(Cl)cccc1Nc1c(-c2ccncc2OC[C@@H]2CCCN2C)[nH]c2c1C(=O)NCC2 [Example 48, 3-(3-chloro-2-methoxyanilino)-2-(3-{[(2S)-1-methylpyrrolidin-2-yl]methoxy}pyridin-4-yl)-1,5,6,7-tetrahydro-4H-pyrrolo[3,2-c]pyridin-4-one] | 8.95 | 1.39 |  | 
2 | 115 | 284 | 6.75 | 6.70 | 8.52 | 8.11 | 231 | > 7.52 |  | 7.29 |  | Cc1c(F)cccc1Nc1c(-c2ccncc2OC[C@@H]2CCCN2C)[nH]c2c1C(=O)NCC2 [Example 49, 3-(3-fluoro-2-methylanilino)-2-(3-{[(2S)-1-methylpyrrolidin-2-yl]methoxy}pyridin-4-yl)-1,5,6,7-tetrahydro-4H-pyrrolo[3,2-c]pyridin-4-one] | 7.94 | 22.7 |  | 
3 |  |  |  |  |  |  |  |  |  |  | 870 | COC(C)(C)COc1cnccc1-c1[nH]c2c(c1Nc1cccc(F)c1OC(F)F)C(=O)NCC2 [Example 19, 3-{[2-(difluoromethoxy)-3-fluorophenyl]amino}-2-[3-(2-methoxy-2-methylpropoxy)pyridin-4-yl]-1,5,6,7-tetrahydro-4H-pyrrolo[3,2-c]pyridin-4-one] |  |  | 9.49 | 4.7
4 |  |  |  |  |  |  |  |  |  |  | 388 | COC(C)(C)COc1cnccc1-c1[nH]c2c(c1Nc1cccc(F)c1CC(F)F)C(=O)NCC2 [Example 23, 3-{[2-(2,2-difluoroethyl)-3-fluorophenyl]amino}-2-[3-(2-methoxy-2-methylpropoxy)pyridin-4-yl]-1,5,6,7-tetrahydro-4H-pyrrolo[3,2-c]pyridin-4-one] |  |  | 9.59 | 3.2
